Measurements published in patent publication US20050208582A1, “Pyrazole compounds and pharmaceutical compositions comprising the compound” (priority 2002, published 2005).

biological target: T1, Human JNK 3 (Homo sapiens, UniProt P53779); test: Measurement of JNK 3 inhibition (GST-JNK3, GST-c-Jun substrate, [γ-33P]ATP, SPA beads); assay type: biochemical; settings: 50% inhibitory concentration on the enzymatic activity of JNK; 3.33 μM ATP in substrate solution, 30 minutes
T1 construct: made in house; host or cells: Escherichia coli
Procedure: Measurement of JNK 3 Inhibition
Human JNK 3 was expressed as a fusion protein (GST-JNK 3) with glutathione S-transferase (GST) in Escherichia coli and was purified using glutathione Sepharose 4B beads. The amino acid sequence 1-169 of c-Jun was prepared as a fusion protein (GST-c-Jun) with GST in Escherichia coli, was purified using glutathione Sepharose 4B beads and was used as a substrate. A test compound was solved in 100% dimethyl sulfoxide into 10 mM and was then further diluted with 10% aqueous dimethyl sulfoxide solution to yield a dilution series. In 96-well OPTI plate (available from ParkinElmer Life Sciences), 20 μl of diluted compound, 30 μl of substrate solution (1.2 μg GST-c-Jun, 0.2 μCi [γ-^33P]ATP, 25 mM HEPES pH=7.5, 10 mM MgAcetate, 3.33 μM ATP) and 50 μl of enzyme solution (0.04 μg GST-JNK3, 25 mM HEPES pH=7.5, 10 mM Mg Acetate) were mixed per 1-well, made up to 100 μl, and allowed to react for 30 minutes. After terminating the reaction by adding 100 μl of a reaction terminator (80 mM ATP, 50 mg/ml glutathione SPA beads (available from Amersham Pharmacia Biotech)), the reaction mixture was shaken for 30 minutes. The mixture was centrifuged at room temperature at 1000×g for 5 minutes, and the emission intensity thereof was determined on a TopCount™ illuminator (available from available from PerkinElmer Life Sciences). The activity is expressed by the 50% inhibitory concentration on the enzymatic activity of JNK, i.e., IC50 (nM).

T1 sequence (P53779 whole entry): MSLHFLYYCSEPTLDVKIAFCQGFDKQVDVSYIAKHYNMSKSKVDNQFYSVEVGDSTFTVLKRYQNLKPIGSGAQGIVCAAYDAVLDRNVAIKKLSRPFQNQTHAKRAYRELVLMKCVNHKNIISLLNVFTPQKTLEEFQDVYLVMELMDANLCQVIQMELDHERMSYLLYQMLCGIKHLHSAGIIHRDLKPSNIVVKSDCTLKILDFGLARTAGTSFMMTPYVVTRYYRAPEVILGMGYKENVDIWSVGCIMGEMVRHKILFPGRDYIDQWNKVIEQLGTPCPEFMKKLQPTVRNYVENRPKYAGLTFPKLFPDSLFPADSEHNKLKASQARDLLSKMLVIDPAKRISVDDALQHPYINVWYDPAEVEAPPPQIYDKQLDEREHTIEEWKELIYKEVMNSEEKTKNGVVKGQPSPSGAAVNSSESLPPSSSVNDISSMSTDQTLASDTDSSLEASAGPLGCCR

Structure (SMILES) | IC50 [nM]
O=C(NCc1ccco1)c1cnc2[nH]nc(-c3ccc4ccccc4c3)c2c1 [Example 472, 3-(Naphthalen-2-yl)-1H-pyrazolo[3,4-b]pyridine-5-carboxylic Acid (furan-2-ylmethyl)-amide] | 505
CC(C)[C@@H](CO)NC(=O)c1cc(F)c2[nH]nc(/C=C/c3cccnc3)c2c1 [Example 128, 7-Fluoro-3-[(E)-2-(pyridin-3-yl)-vinyl]-1H-indazole-5-carboxylic acid [(1S)-1-hydroxymethyl-2-methylpropyl]-amide] | 117
COc1c(C(=O)NCc2ncco2)ccc2[nH]nc(/C=C/c3ccc(F)cc3F)c12 [Example 992, 3-[(E)-2-(2,4-Difluorophenyl)-vinyl]-4-methoxy-1H-indazole-5-carboxylic Acid (oxazol-2-ylmethyl)amide] | 107
O=C(NCc1cccnc1)c1cc2c(/C=C/c3cccc(F)c3)n[nH]c2cc1F [Example 106, 6-Fluoro-3-[(E)-2-(3-fluorophenyl)-vinyl]-1H-indazole-5-carboxylic Acid (pyridine-3-ylmethyl)-amide] | 195
O=C(NC1CC1)c1ccc2[nH]nc(-c3cccc(F)c3)c2n1 [Example 56, 3-(3-Fluorophenyl)-1H-pyrazolo[4,3-b]pyridine-5-carboxylic Acid Cyclopropylamide] | 234
CNCc1nnc(-c2cc3c(/C=C/c4ccc(F)cc4)n[nH]c3cc2F)[nH]1 [Example 571, (5-{6-Fluoro-3-[(E)-2-(4-fluorophenyl)-vinyl]-1H-indazol-5-yl}-4H-[1,2,4]triazol-3-ylmethyl)-methyl-amine] | 63
O=C(NC(CO)c1ccccc1)c1cc2c(-c3ccc4ccccc4c3)n[nH]c2s1 (centres unmarked) [Example 522, 3-(Naphthalen-2-yl)-1H-thieno[2,3-c]pyrazol-5-carboxylic Acid (2-hydroxy-1-phenylethyl)amide] | 146
NCc1nnc(-c2cc(F)c3[nH]nc(/C=C/c4ccc(F)cc4)c3c2)[nH]1 [Example 573, C-(5-{7-Fluoro-3-[(E)-2-(4-fluorophenyl)-vinyl]-1H-indazol-5-yl}-4H-[1,2,4]triazol-3-yl)-methylamine] | 66
Fc1ccc(/C=C/c2n[nH]c3c(F)cc(-c4ncc[nH]4)cc23)cc1 [Example 603, 7-Fluoro-3-[(E)-2-(4-fluorophenyl)-vinyl]-5-(1H-imidazol-2-yl)-1H-indazole] | 117
COc1cc(/C=C/c2n[nH]c3cc(F)c(NC(=O)CC4CC4)cc23)ccc1F [Example 1003, 2-Cyclopropyl-N-{6-fluoro-3-[(E)-2-(4-fluoro-3-methoxyphenyl)-vinyl]-1H-indazol-5-yl}acetamide] | 122
COc1c(-c2nc(C)n[nH]2)ccc2[nH]nc(/C=C/c3cccc(F)c3)c12 [Example 392, 3-[(E)-2-(3-Fluorophenyl)-vinyl]-4-methoxy-5-(5-methyl-2H-[1,2,4]triazol-3-yl)-1H-indazole] | 403

Results, then the molecule that gave them:

IC50 [nM] | Structure (SMILES)
117 | O=C(NCc1ccco1)c1ccc2[nH]nc(/C=C/c3cccs3)c2c1F [Example 213, 4-Fluoro-3-[(E)-2-(thiophen-2-yl)-vinyl]-1H-indazole-5-carboxylic Acid (furan-2-ylmethyl)-amide]
118 | O=C(Nc1ccc2[nH]nc(/C=C/c3ccc(F)cc3)c2n1)c1ccco1 [Example 495, Furan-2-carboxylic Acid {3-[(E)-2-(4-fluorophenyl)-vinyl]-1H-pyrazolo[4,3-b]pyridin-5-yl}-amide]
70 | NC(=O)CCOc1c(C(=O)N[C@H](CO)c2ccccc2)ccc2[nH]nc(/C=C/c3ccc(F)cc3)c12 [Example 790, 4-(2-Carbamoylethoxy)-3-[(E)-2-(4-fluorophenyl)-vinyl]-1H-indazole-5-carboxylic Acid [(1S)-2-hydroxy-1-phenyl-ethyl]-amide]
148 | O=C(NC1CC1)c1ccc2[nH]nc(/C=C/c3ccc(F)cc3)c2c1OCCO [Example 353, 3-[(E)-2-(4-Fluorophenyl)-vinyl]-4-(2-hydroxyethoxy)-1H-indazole-5-carboxylic Acid Cyclopropylamide]
578 | O=C(NCc1ccco1)c1cc2c(/C=C/c3cccc(F)c3)n[nH]c2cn1 [Example 466]
132 | CCCNC(=O)Nc1cc2c(/C=C/c3ccc(F)cc3)n[nH]c2cc1F [Example 1056, 1-{6-Fluoro-3-[(E)-2-(4-fluorophenyl)-vinyl]-1H-indazol-5-yl}-3-propyl-urea]
175 | C[C@H](NC(=O)c1ccc2[nH]nc(/C=C/c3ccc(F)cc3)c2c1OCCCO)C(N)=O [Example 786, 3-[(E)-2-(4-Fluorophenyl)-vinyl]-4-(3-hydroxypropoxy)-1H-indazole-5-carboxylic Acid [(1S)-1-carbamoyl-ethyl]-amide]
167 | O=C(Nc1cc(F)c2[nH]nc(/C=C/c3cccnc3)c2c1)c1ccco1 [Example 136, Furan-2-carboxylic Acid [7-fluoro-3-(2-pyridin-3-yl-vinyl)-1H-indazol-5-yl]-amide]

same assay, conditions: selectivity table, compared with ERK2; read-out: JNK3 inhibitory activity

IC50 [nM] | Structure (SMILES)
92 | O=C(NCc1ccco1)c1ccc2[nH]nc(/C=C/c3cccc(F)c3)c2c1 [Reference example 1, 3-[(E)-2-(3-fluorophenyl)-vinyl]-1H-indazole-5-carboxylic acid (furan-2-ylmethyl)-amide, reference compound]
55 | O=C(NCc1ccco1)c1cc2c(/C=C/c3cccc(F)c3)n[nH]c2cc1F [Example 103, 6-Fluoro-3-[(E)-2-(3-fluorophenyl)-vinyl]-1H-indazole-5-carboxylic Acid (furan-2-ylmethyl)-amide]

biological target: T2, ERK2 (Homo sapiens, UniProt P28482); test: Measurement of ERK2 inhibition (ELISA, myelin basic protein substrate); assay type: biochemical; settings: concentration at which ERK2 enzyme activity was inhibited to 50%; room temperature, 30 minutes; read-out: ERK2 inhibitory activity
T2 construct: purchased Upstate Biotech
Procedure: Measurement of ERK2 Inhibition
A plate for ELISA was coated for 1 hour with 1 μg/well myelin basic protein (available from Upstate Biotech) serving as a reaction substrate. Following washing operation with PBS-Tween, blocking with 1% BSA-PBS was conducted for 3 hours. After washing with PBS-Tween, 25 μl of a reaction solution (20 mM MOPS, 25 mM β-glycerphosphoric acid, 5 mM EGTA, 1 mM orthovanadic acid, 1 mM dithiothreitol), 5 μl of a dilution sample of compound from dilution series which was prepared using 1% DMSO-1% BSA solution, 10 μl of 0.5 μg/ml ERK2 (available from Upstate Bioech), 10 μl of 500 μM ATP were added to made up to 50 μl, and allowed to react at room temperature for 30 minutes. 100 μl of 200 mM EDTA (pH 8.0) was added to stop the reaction, which was then washed with PBS-Tween. This was then added with mouse anti-phospho-myelin basic protein antibody (available from Usptate Biotech), allowed to react for 1 hour, and washed with PBS-Tween, thereafter added with anti-mouse IgG antibody combined with horseradish peroxidase (available from ICN), allowed to react for 1 hour, and washed with PBS-Tween. Subsequently 100 μl of a TMB peroxidase substrate solution (available from KPL) was added, coloring reaction was allowed for 10 minutes, and then measurement at OD 450 nm was conducted. […]

T2 sequence (P28482 whole entry, species assumed): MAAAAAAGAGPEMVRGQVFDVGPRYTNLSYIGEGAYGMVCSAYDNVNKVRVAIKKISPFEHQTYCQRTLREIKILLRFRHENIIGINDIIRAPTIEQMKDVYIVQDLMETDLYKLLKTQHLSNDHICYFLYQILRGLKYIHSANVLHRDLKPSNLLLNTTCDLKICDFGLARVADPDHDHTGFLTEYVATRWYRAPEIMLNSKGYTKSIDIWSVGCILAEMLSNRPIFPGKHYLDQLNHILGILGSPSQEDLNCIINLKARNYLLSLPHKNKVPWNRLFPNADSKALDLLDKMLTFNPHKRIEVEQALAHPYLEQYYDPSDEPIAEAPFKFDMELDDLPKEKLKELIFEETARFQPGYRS

IC50 [nM] | Structure (SMILES)
710 | O=C(NCc1ccco1)c1ccc2[nH]nc(/C=C/c3cccc(F)c3)c2c1 [Reference example 1, 3-[(E)-2-(3-fluorophenyl)-vinyl]-1H-indazole-5-carboxylic acid (furan-2-ylmethyl)-amide, reference compound]
22100 | O=C(NCc1ccco1)c1cc2c(/C=C/c3cccc(F)c3)n[nH]c2cc1F [Example 103, 6-Fluoro-3-[(E)-2-(3-fluorophenyl)-vinyl]-1H-indazole-5-carboxylic Acid (furan-2-ylmethyl)-amide]
